Test results published in US11318141B2, “Methods and compositions related to STK1-targeted small molecules as antibiotic resistance breakers” (Ohio State Innovation Foundation, priority 2017, dated 2022).

Legend:
S. aureus MW2 wild-type = assay: Serial passage at suboptimal dose (10 generations), stk1 PCR and DNA sequencing; format: cell-based, Staphylococcus aureus; details: 25 μM Inh2-B1 alone or with 3 μM Ceftriaxone or 3 μM Cefotaxime, 10 generations
Method: Since the STK1 is not essential for bacterial survival and its absence results in retardation of growth, an end-point bactericidal assay was done, employing the Checkerboard titration method followed by a time-to-kill assay using the broth dilution method. The 96-well plate-based checkerboard titration assays were performed using the fixed number of CFUs of MW2 strain, and the survival of the bacteria was measured on solid agar plates as an end-point result. […] The cut-off value to designate clinical isolates of S. aureus for antibiotics, including Ceftriaxone (TX) and Cefotaxime (CT) as susceptible, is less than 4 μg/ml (i.e., <4.8 μM of TX, and <7 μM of CT). […] CFU counts of MW2-WT grown in the presence of various concentrations of Inh2-B1 were examined over a period of 16 h. […] Similarly, it was also determined CFU counts of MW2-WT and MW2ΔSTK1 strains each grown in the absence or the presence of 50 μM of Inh2-B1 and 1.5 μM Ceftriaxone (1 μg/ml) or […] Cefotaxime (1 μg/ml) for 16 h employing the broth dilution method. […] Further, to address whether MW2 or STK1 could become refractory to a potential combined therapy, the S. aureus MW2 wild-type strain was grown in the presence of suboptimal dose of Inh2-B1 alone and combination with Ceftriaxone and Cefotaxime (25 μM Inh2-B1 and 3 μM of Ceftriaxone or 3 μM Cefotaxime) for consecutive 10 generations.

S. aureus MW2-WT = assay: Time-to-kill assay (OD and CFU counts over 16 h), broth dilution; format: cell-based, Staphylococcus aureus
Method: FIGS. 4A-F show. […] Optical Density and corresponding Colony forming units of (C and D) MW2-WT and (E and F) MW2ΔSTK1 cultures in the presence or absence 50 μM Inh2-B1, 1.51 μM (1 μg/ml) Ceftriaxone, 2.125 μM (1 μg/ml) Cefotaxime, and combination of Inh2-B1 plus Ceftriaxone, and Inh2-B1 plus Cefotaxime. The experiments were carried out as described in the Materials and Method section using Muller-Hinton broth and seeded with 4×10^6 CFUs of S. aureus MW2-Wild type or MW2ΔSTK1 strains per well. Each data points represent Mean±S.D. P values of significance (**=<0.01, ***=<0.001) were determined using the t-test with Welch's corrections. NS—Not significant.
Subsequently, the susceptibility of S. aureus MW2 strain to Ceftriaxone, Cefotaxime, Inh2, and Inh2-B1 was confirmed by the CLSI recommended serial dilution method using Muller Hinton broth. Minimum bactericidal activity (MBC) was measured using Muller-Hinton agar. Changes in the MBC of Ceftriaxone/Cefotaxime in the presence of serially diluted Inh2-B1 was determined in two steps. Initial screening was carried out using the Checkerboard method using Muller-Hinton agar (FIG. 15). […] Subsequent time to kill assays were carried out using 50 μM Inh2-B1 and Ceftriaxone. Cefotaxime (1 μg/ml) in a final volume of 250 μl using a sterile 96-well (U-bottom) microtiter plate over a period of 16 h at 37° C. under constant rotation (120 rpm). Optical density and corresponding CFU counts were measured at every two-hour interval up to 8 hours with a final overnight reading at the end of incubation period. CFU counts were measured using appropriate dilution of 10 μl of properly mixed samples at each time interval. All experiments were performed in three biological replicates and the statistical analysis of the results obtained at each time point was carried out by the non-parametric t-test with Welch's correction using GraphPad Prism 6 software.

[1] = test system: S. pyogenes SP-STK / SP-STKK; assay: Solid-phase ATP affinity chromatography, elution of bound kinase by inhibitor, Western blot; format: binding; details: purified recombinant protein
Method: (§1) An overnight culture of S. aureus MW2 strain was centrifuged, and the resulting bacterial pellet was resuspended in lysostaphin digestion buffer (50 mM Tris/HCl buffer, pH 7.5, containing 5 μg/ml DNAse/RNAse and protease inhibitor cocktail) in 1/10 the volume of the original culture volume. The latter was then subjected to lysostaphin treatment (15 U/ml). The lysostaphin digest was sonicated (5 sec pulse at every 10 sec for 10 min at 50% of 130 W, […]), and the debris free whole cell lysate was obtained after centrifugation (10.000×g, 10 min, 4° C.). […] The column was then washed with ten column volumes of binding buffer. Subsequently, the bound proteins were eluted with the 10-column volume of buffer containing 50 μM Inh-2 and Inh2-B1. S. aureus crude lysate, the last fraction of the column washing step, and eluted fractions were resolved by SDS-PAGE and electroblotted onto a PVDF membrane. […] A similar experiment was performed using S. pyogenes whole cell lysates obtained from phage lysin-digested S. pyogenes M1T1 strain using the anti-SP-STK antibody as described previously using to determine the specificity of the inhibitor for S. aureus STK1.

S. aureus STK1 / STKK1 = assay: as above; format: binding
Method: as §1

S. pyogenes SP-STK = assay: In vitro autophosphorylation / kinase activity of SP-STK; format: biochemical

Compound: COC(=O)c1ccc2c(=O)[nH]c3c(C(=O)Nc4ccccc4)sc(=S)n3c2c1 [Inh2-B1, Methyl 5-oxo-3-(phenylcarbamoyl)-1-thioxo-4,5dihydro[1,3]thiazolo[3,4-a]quinazoline-8-carboxylate]
- changes in the stk1 gene of the passaged strain (S. aureus MW2 wild-type): did not show any changes in the stk1 gene
- log increase in growth from starting inoculum (S. aureus MW2-WT; 100 μM Inh2-B1, 16 h): more than 3 log
- CFU count of MW2-WT after growth (S. aureus MW2-WT; 100 μM Inh2-B1, 16 h, starting inoculum 4×10^6 CFU): 1.8±1.0×10^9 CFU
- growth pattern of the MW2 wild-type in the presence of Inh2-B1 (S. aureus MW2-WT; FIGS. 4A and 4B, mimicked MW2ΔSTK1): slightly retarded
- growth of the MW2 wild-type, mixture (S. aureus MW2-WT; mixture of 1.5 μM Ceftriaxone (1 μg/ml) and 50 μM Inh2-B1): dramatically inhibited
- growth pattern of the wild-type, single agent (S. aureus MW2-WT; only 50 μM Inh2-B1, only 1.5 μM Ceftriaxone (1 μg/ml) or only 3 μM Cefotaxime (1 μg/ml), 16 h): remained unaltered
- log reduction in comparison to the wild-type (S. aureus MW2-WT; very high concentration (100 μM) of Inh2-B1): ~2 log
- elution of purified recombinant S. pyogenes SP-STKK from ATP-column [1]: not S. pyogenes SP-STKK protein
- elution of STK1 bound to ATP-column, whole cell lysate of S. aureus MW2 (S. aureus STK1 / STKK1; eluted with 50 μM inhibitor, anti-STK1 immunoblot): presence of STK1
- elution of purified recombinant S. aureus STKK1 from ATP-column (S. aureus STK1 / STKK1; purified recombinant protein): could elute only the S. aureus STKK1 protein
- inhibition of the kinase activity of SP-STK of S. pyogenes (S. pyogenes SP-STK): did not inhibit the kinase activity
